Data reported in patent US6605626B2, “Antithrombotic agents” (Eli Lilly and Company, priority 1997, dated 2003).

melting point [°C] | SMILES
238 to 239 | COc1ccc(C(=O)Nc2ccc(OC)cc2NC(=O)c2ccc(OC)cc2)cc1 [Example 155, 4-Methoxy-N^1,N^2-bis(4-methoxybenzoyl)-1,2-benzenediamine]
208 to 210 | COc1ccc(NC(=O)c2ccccc2NC(=O)c2ccc(C(C)(C)C)cc2)cc1 [Example 89, 2-(4-tert-Butylbenzoylamino)-N-(4-methoxyphenyl)benzamide]
205 to 207.5 | CCNc1ccc(C(=O)Nc2ccc(OC)cc2)c(NC(=O)c2ccc(C(C)(C)C)cc2)c1 [Example 60a, 2-(4-tert-Butylbenzoylamino)-4-ethylamino-N-(4-methoxyphenyl)benzamide]
208 to 209 | COc1ccc(C(=O)Nc2cccc(O)c2NC(=O)c2ccc(OC)cc2)cc1 [Example 158, 2,3-bis[(4-Methoxybenzoyl)amino]phenol]
